Data as given in paper PMC6944758 (The FEBS journal, 2019).

Assays:
[1] = molecular target: T1, ALDH7A1 (Homo sapiens, UniProt P49419); test: X-ray crystal structure, co-crystallization; assay type: binding; conditions: 15 mM NAD+, pH 6.8, 1.85 Å; Rossmann fold cofactor site
T1 sequence (P49419 1-511 isoform P49419-2): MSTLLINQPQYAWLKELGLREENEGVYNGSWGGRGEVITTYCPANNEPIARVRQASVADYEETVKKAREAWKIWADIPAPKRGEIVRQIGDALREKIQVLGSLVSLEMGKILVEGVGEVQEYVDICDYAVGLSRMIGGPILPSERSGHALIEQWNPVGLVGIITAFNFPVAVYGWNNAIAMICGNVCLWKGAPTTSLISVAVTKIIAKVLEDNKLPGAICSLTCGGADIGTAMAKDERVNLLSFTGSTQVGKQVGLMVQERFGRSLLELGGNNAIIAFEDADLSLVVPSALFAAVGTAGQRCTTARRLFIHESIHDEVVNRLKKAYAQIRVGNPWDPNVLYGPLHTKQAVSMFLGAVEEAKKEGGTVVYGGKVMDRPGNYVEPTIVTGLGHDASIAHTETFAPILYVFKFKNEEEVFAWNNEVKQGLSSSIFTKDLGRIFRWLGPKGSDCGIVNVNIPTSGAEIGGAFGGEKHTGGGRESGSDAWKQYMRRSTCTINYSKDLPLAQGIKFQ

[2] = molecular target: T1, ALDH7A1; test: X-ray crystal structure, co-crystallization; assay type: binding; conditions: 175 mM PA, pH 7.2, 1.88 Å; aldehyde substrate site

Row | Structure (SMILES) | X-ray crystal structure, co-crystallization [1] | X-ray crystal structure, co-crystallization [2]
1 | NC(=O)c1ccc[n+]([C@@H]2O[C@H](COP(=O)(O)OP(=O)(O)OC[C@H]3O[C@@H](n4cnc5c(N)ncnc54)[C@H](O)[C@@H]3O)[C@@H](O)[C@H]2O)c1 [NAD^+] | The structures of W175G and W175A complexed with NAD^+ were determined | 
2 | O=C(O)[C@@H]1CCCCN1 [PA, L-pipecolic acid] |  | we obtained a structure of W175A complexed with the P6C analog L-pipecolic acid (PA)
